Measured values: PubChem BioAssay (NCI)
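Where inhibition never reached the appropriate level, the endpoint shown equals the highest concentration tested. Otherwise, values were interpolated linearly from a five-concentration, 48-hour dose response in 96-well plates. Abbreviation: GI50, concentration required for 50% inhibition of growth. Definition used: TGI = concentration required for complete inhibition of growth.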

Key:
Test in all cases: NCI-60 cell line screen, 48 h
HL-60(TB) leukemia = tested on: HL-60(TB) leukemia
MALME-3M melanoma = tested on: MALME-3M melanoma
CCRF-CEM leukemia = tested on: CCRF-CEM leukemia
KM12 colon = tested on: KM12 colon
LOX IMVI melanoma = tested on: LOX IMVI melanoma
SK-OV-3 ovarian = tested on: SK-OV-3 ovarian
RXF 393 renal = tested on: RXF 393 renal
RPMI-8226 leukemia = tested on: RPMI-8226 leukemia
EKVX NSCLC = tested on: EKVX NSCLC
HOP-62 NSCLC = tested on: HOP-62 NSCLC

| Structure (SMILES) | TGI (HL-60(TB) leukemia) [µM] | TGI (MALME-3M melanoma) [µM] | TGI (CCRF-CEM leukemia) [µM] | TGI (KM12 colon) [µM] | TGI (LOX IMVI melanoma) [µM] | TGI (SK-OV-3 ovarian) [µM] | TGI (RXF 393 renal) [µM] | TGI (RPMI-8226 leukemia) [µM] | TGI (EKVX NSCLC) [µM] | TGI (HOP-62 NSCLC) [µM] | GI50 (EKVX NSCLC) [µM] | GI50 (HL-60(TB) leukemia) [µM] | GI50 (KM12 colon) [µM] | GI50 (LOX IMVI melanoma) [µM] | GI50 (SK-OV-3 ovarian) [µM] | GI50 (RXF 393 renal) [µM] | GI50 (RPMI-8226 leukemia) [µM] | GI50 (MALME-3M melanoma) [µM] | GI50 (CCRF-CEM leukemia) [µM] | GI50 (HOP-62 NSCLC) [µM] |
| --- | --- | --- | --- | --- | --- | --- | --- | --- | --- | --- | --- | --- | --- | --- | --- | --- | --- | --- | --- | --- |
| C[C@]12CC[C@H](OC(=O)Cc3ccc(N(CCCl)CCCl)cc3)CC1CC[C@@H]1C2CC[C@]2(C)NC(=O)CCC12 (stereo not given in full) | 6.06 | 35.7 | 18 | 25.5 | 27.2 | 33.8 | 24.3 | 23 | – | – | – | – | – | – | – | – | – | – | – | – |
| O=S1(=O)OCc2ccccc21 | > 100 | > 100 | > 100 | > 100 | – | > 100 | > 100 | > 100 | > 100 | 42.3 | – | – | – | – | – | – | – | – | – | – |
| CC(C)(C)n1nc(C2CC2)cc1NC(=O)Nc1ccc(Cl)cc1 | > 100 | > 100 | – | > 100 | > 100 | > 100 | > 100 | > 100 | > 100 | > 100 | – | – | – | – | – | – | – | – | – | – |
| CCOC(=O)NC(=O)c1cn(CC(=O)NCC(=O)NCC(=O)N2CCN(CCn3c(C)nc(C(N)=O)c3N)CC2)c(=O)[nH]c1=O | > 100 | > 100 | > 100 | > 100 | > 100 | > 100 | – | – | – | > 100 | – | – | – | – | – | – | – | – | – | – |
| Cc1cc(Cl)ccc1NC(=O)C1C(=O)C(=O)N(c2ccc(Cl)cc2C)C1=O (stereo not given) | > 100 | > 100 | > 100 | – | > 100 | > 100 | – | > 100 | > 100 | > 100 | – | – | – | – | – | – | – | – | – | – |
| N#CC1=C(c2ccccc2)NN(Cc2ccccc2)C(c2ccc(Cl)cc2)CC1=O (stereo not given) | 84.6 | – | > 100 | 82.1 | 41.8 | – | 98.2 | 64.8 | – | – | – | – | – | – | – | – | – | – | – | – |
| C[C@]12CC/C(=N\O)C[C@@H]1CC[C@@H]1[C@@H]2CC[C@]2(C)/C(=N/O)CC[C@@H]12 | > 100 | – | – | 47.4 | 50.7 | > 100 | 71.4 | 52 | > 100 | – | 44.6 | 23.2 | 20.9 | 21.3 | 51.4 | 34.1 | 15.9 | – | – | – |
| CC(=O)O[C@H]1CC[C@@]2(C)C(=CC[C@@H]3C2CC[C@]2(C)C(=O)NC(=O)CC32)C1 (stereo not given in full) | > 100 | > 100 | > 100 | > 100 | > 100 | > 100 | 84.1 | – | > 100 | > 100 | – | – | – | – | – | – | – | – | – | – |
| O=C1C2c3[nH]c4ccccc4c3C3CCC(c4ccccc4)CC3C2C(=O)N1c1ccccc1 (stereo not given) | 71.1 | > 100 | > 100 | > 100 | > 100 | > 100 | > 100 | > 100 | > 100 | – | – | – | – | – | – | – | – | – | – | – |
| COc1ccc(C(=C(C#N)C#N)c2ccc(OC)cc2)cc1 | > 100 | – | > 100 | > 100 | > 100 | – | > 100 | > 100 | > 100 | > 100 | – | – | – | – | – | – | – | – | – | – |
| Clc1cc(Cl)cc(C2SCc3nc4ccccc4n32)c1 (stereo not given) | 53.4 | 62.6 | 70.6 | 37.3 | – | 63.8 | 28.2 | 98.4 | 70.8 | – | – | – | – | – | – | – | – | – | – | – |
| CCOc1cccc2sc(N)nc12 | > 100 | > 100 | – | > 100 | > 100 | > 100 | > 100 | > 100 | > 100 | > 100 | – | – | – | – | – | – | – | – | – | – |
| Cc1cc(N(CCC#N)CCC#N)ccc1/C=C(\NC(=O)/C=C/c1ccccc1)NC(=O)Nc1ccccc1C | > 100 | > 100 | > 100 | > 100 | > 100 | – | 63.4 | > 100 | > 100 | – | – | – | – | – | – | – | – | – | – | – |
| COc1ccc2c3c(ccc2c1)NC(C(=O)O)CC3 (stereo not given) | 82.9 | > 100 | – | > 100 | > 100 | > 100 | > 100 | 54.1 | > 100 | > 100 | – | – | – | – | – | – | – | – | – | – |
| O=C(/C=C/c1ccc[nH]1)c1ccccc1 | > 100 | > 100 | > 100 | > 100 | > 100 | > 100 | > 100 | > 100 | – | > 100 | – | – | – | – | – | – | – | – | – | – |
| Cc1cc(C)nc(NS(=O)(=O)c2ccc(Nc3nc4nc(NCc5ccccc5)nc(-c5ccc(O)cc5)c4c(=O)[nH]3)cc2)n1 | 36.2 | > 100 | > 100 | > 100 | > 100 | > 100 | – | > 100 | > 100 | > 100 | 35.1 | 8.41 | 15.5 | 25.2 | > 100 | – | > 100 | 32.8 | 54.6 | > 100 |
| C=CC1CC12C(=O)C1OC2(C)C2C(=O)c3c(O)cccc3C(=O)C12 (stereo not given) | 46.9 | 54.5 | > 100 | 66.3 | – | > 100 | 41.1 | – | > 100 | > 100 | 56.9 | 18.7 | 18 | – | 94.5 | 13.1 | – | 17.1 | 26 | > 100 |
| CCCCCCCC(=O)SCC/C=C/[C@@H]1CC(=O)NCc2cccc(n2)C2=N[C@@](C)(CS2)C(=O)N[C@@H](C(C)C)C(=O)O1 | > 33.3 | – | > 33.3 | 5.95 | 0.193 | 0.596 | 0.207 | > 33.3 | > 33.3 | > 33.3 | 0.0869 | 0.126 | 0.0719 | 0.0501 | 0.0284 | 0.0534 | 0.193 | – | 0.112 | 0.0252 |
| COc1ccc(-c2cnc(SCC(=O)c3c(C)n(C)n(-c4ccccc4)c3=O)n2-c2ccc(OC)cc2)cc1 | > 50 | – | – | > 50 | > 50 | – | > 50 | > 50 | > 50 | > 50 | 29.7 | 36.8 | > 50 | 46.5 | – | > 50 | 6.87 | – | – | 28.9 |
| Clc1cc2nc[nH]c2cc1Cl | > 100 | > 100 | > 100 | > 100 | > 100 | > 100 | – | > 100 | > 100 | > 100 | – | – | – | – | – | – | – | – | – | – |
